Results published in PMC9902378, “Quinate-based ligands for irreversible inactivation of the bacterial virulence factor DHQ1 enzyme—A molecular insight” (Frontiers in Molecular Biosciences, 2023).

Assays:
[1] = system: Salmonella enterica DHQ1 enzyme; conditions: crystal structure PDB ID 4GUI, 1.78 Å; ref Light et al., 2014; cited from earlier work
St-DHQ1 [2] = molecular target: T1, St-DHQ1 (Salmonella typhi, UniProt P24670); assay: MALDI mass spectrometry of enzyme incubated with ligand; format: binding; conditions: for covalent modification of enzyme (MALDI): similar studies, incubation with ligand
T1 construct: made in house
T1 sequence (P24670 1-252): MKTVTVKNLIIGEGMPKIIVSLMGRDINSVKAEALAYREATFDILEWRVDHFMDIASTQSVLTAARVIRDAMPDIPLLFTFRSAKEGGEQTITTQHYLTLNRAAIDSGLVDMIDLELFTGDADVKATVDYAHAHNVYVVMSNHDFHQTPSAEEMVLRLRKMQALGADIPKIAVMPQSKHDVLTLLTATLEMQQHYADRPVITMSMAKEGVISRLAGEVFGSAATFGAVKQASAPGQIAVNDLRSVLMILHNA
Description: The covalent modification of DHQ1 by compound 6 was also corroborated by mass spectrometry analysis of samples incubated with and without ligand.
St-DHQ1 (3.1 µM from a stock protein concentration of 0.85 mg mL^−1) and Sa-DHQ1 (3.0 µM from a stock protein concentration of 4 mg mL^−1) was incubated with various aqueous solutions of ligands 6–8 in PPB (0.5 mL, 50 mM) at pH 7.2, 25°C. The activity was determined progressively over a 24 h period under the standard assay conditions using aliquots from the incubation samples and the control. The activity was measured at a substrate concentration of 14 µM. The initial rate of each assay was measured. The samples were concentrated and washed (5 mM ammonium carbonate) for MALDI analysis by centrifugation at 4 °C using Amicon® centrifugal filters (Amicon Ultra-10). The samples were freeze-dried, diluted with 5 mM ammonium bicarbonate (5 µL) and analyzed by mass spectrometry using a MALDI TOF/TOF Mass Spectrometer (4,800 Analyzer, AbSciex). The ProteoMass™ MALDI calibration kit (Merck) was employed for calibration and sanipic acid as a matrix. Spectra were analyzed using the Data Explorer™ Software. Experiments were performed in triplicate.
Figure S3. MALDI spectra of St-DHQ1 after incubation with 3-hydroxylaminoquinic acid (6) (left) and the control (right). Incubation conditions were potassium phosphate buffer (50 mM, pH 7.0), 25 °C and (1:120) protein/ligand ratio, 24 h. After incubation and for MALDI analysis, the samples were successively washed with 5 mM […] by centrifugation at 4 °C using Amicon® centrifugal filters and concentrated. Sinapic acid was used as a matrix.
(1 picture or pasted object on this page, not shown here)

St-DHQ1 [3] = molecular target: T1, St-DHQ1; assay: Reversible competitive inhibition assay (initial rates, IC50); format: biochemical; conditions: substrate 14 µM, PPB 50 mM, pH 7.2, 25°C
Description: (§1) The inhibitory capacity of compounds 6–8 against DHQ1 enzymes from S. aureus and S. typhi was evaluated. For irreversible inhibition assays, the enzyme was incubated with the ligand and its remaining activity was progressively determined using aliquots from the incubation samples and the control. For reversible competitive inhibition assays, the activity of the enzyme in the presence of increasing amount of ligand was evaluated. The enzyme activity was determined by monitoring the increase in absorbance at 234 nm in the UV spectrum due to formation of the enone-carboxylate chromophore of the enzyme product, 3-dehydroshikimic acid 2).
(§2) The St-DHQ1 and Sa-DHQ1 enzyme were purified as described previously ([Moore et al., 1993]; [Nichols et al., 2004]). Concentrated solutions of St-DHQ1 (0.85 mg mL^−1, 30.74 µM) and Sa-DHQ1 (4 mg mL^−1, 148.13 µM) were stored in potassium phosphate buffer (PPB) (50 mM) and DTT (1 mM) at pH 6.6 and −80°C. When required for assays, aliquots of the enzyme stocks were diluted in water and buffer and stored on ice. DHQ1 was assayed in the forward direction by monitoring the increase in absorbance at 234 nm in the UV spectrum due to the absorbance for the enone-carboxylate chromophore of 3-dehydroshikimic acid (ε/M^−1 cm^−1 12 000). Standard assay conditions were PPB (50 mM, pH 7.2) at 25°C. Each assay was initiated by addition of the substrate. Solutions of 3-dehydroquinic acid 1) were calibrated by equilibration with DHQ1 and measurement of the change in the UV absorbance at 234 nm due to formation of the enone-carboxylate chromophore of 3-dehydroshikimic acid. […] The program GraFit 7.0.3. (Erithacus Software Ltd.). was used for data fitting.
(§3) IC50 values were determined in duplicate by measuring the initial rates at fixed enzyme and substrate concentrations (14 µM) in the absence and in the presence of various compounds concentrations, which was adjusted to the Equation 2 implemented in GraFit: y=Emax / 1+(IC50 / x)^n (2)
(§4) were y is the observed effect at inhibitor concentration x, Emax corresponds to the maximum effect, IC50 is the concentration at which a 50% […] is obtained, and n is the slope of the curve.

Sa-DHQ1 [4] = molecular target: T2, Sa-DHQ1 (Staphylococcus aureus, UniProt Q6GII7); assay: as above; format: biochemical; conditions: substrate 14 µM, PPB 50 mM, pH 7.2, 25°C
T2 construct: made in house
Description: as §1, §2, §3, §4

St-DHQ1 [5] = molecular target: T1, St-DHQ1; assay: Time-dependent irreversible inhibition assay (incubation of enzyme with ligand, residual activity at 234 nm); format: biochemical
Description: as §1, §2
(§5) Incubation of Sa-DHQ1 and St-DHQ1 (2.96 µM from a stock protein concentration of […]) with various aqueous solutions of compounds 6–8 (30–4,000 µM) was carried out in PPB (0.5 mL, 50 mM) at pH 7.2 at 25°C. The activity was determined progressively in duplicate over a 3 h period under the standard assay conditions (see above) using aliquots from the incubation samples and the control. Semilogarithmic plots of residual activity as a function of time with a range of inhibitor concentrations [I] were performed to obtain the first-order rate constant, k obs, calculated from the slope, and is related with k inact KI constants by Equation 1 implemented in GraFit ([Plapp, 1982]): kobs=(kinact I) / (KI)+I) (1)

Sa-DHQ1 [6] = molecular target: T2, Sa-DHQ1; assay: as above; format: biochemical
Description: as §1, §2, §5

St-DHQ1 [7] = molecular target: T1, St-DHQ1; assay: DHQ1 assay, kinetic parameters of the substrate; format: biochemical; conditions: PPB 50 mM, pH 7.2, 25°C
Description: as §2

Sa-DHQ1 [8] = molecular target: T2, Sa-DHQ1; assay: DHQ1 assay, kinetic parameters of the substrate; format: biochemical; conditions: PPB 50 mM, pH 7.2, 25°C
Description: as §2

[9] = PPB 50 mM, pH 7.2, 25°C, time-dependent irreversible inhibition

T2 sequence (Q6GII7 whole entry): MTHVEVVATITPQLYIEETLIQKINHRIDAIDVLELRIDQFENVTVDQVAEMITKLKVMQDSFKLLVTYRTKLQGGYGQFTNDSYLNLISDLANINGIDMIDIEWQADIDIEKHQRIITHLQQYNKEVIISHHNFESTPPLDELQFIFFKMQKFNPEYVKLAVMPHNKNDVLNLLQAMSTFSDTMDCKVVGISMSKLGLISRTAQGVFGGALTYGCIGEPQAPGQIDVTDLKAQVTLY

## O=C(O)[C@]1(O)C[C@@H](O)[C@@H](O)[C@H](O)C1 [(–)-quinic acid (9), (–)-quinic acid]
[1]
  covalent adduct formation with the enzyme: does not form a covalent adduct

## O=C(O)[C@@]1(O)C[C@@H](O)[C@H](O)[C@@H]2O[C@@H]21 [Compound 8, (1S,2R,4R,5S,6S)-2,4,5-trihydroxy-7-oxabicyclo[4.1.0]heptane-2-carboxylic acid]
St-DHQ1 [2]
  covalent modification of enzyme (MALDI): No modifications
St-DHQ1 [3]
  IC50: > 2000 µM
Sa-DHQ1 [4]
  IC50: > 2000 µM
St-DHQ1 [5]
  type of inhibition: reversible competitive inhibitors
Sa-DHQ1 [6]
  type of inhibition: reversible competitive inhibitors

## O=C1C[C@@](O)(C(=O)O)C[C@@H](O)[C@@H]1O [3-dehydroquinic acid]
St-DHQ1 [7]
  K m: 24 ± 3 µM
  k cat: 1.1 ± 0.1 s⁻¹
Sa-DHQ1 [8]
  K m: 18 ± 3 µM
  k cat: 255 ± 12 s⁻¹

## O=C(O)[C@@]1(O)C[C@@H](O)[C@H](O)[C@H](NO)C1 [Compound 6, (1S,3R,4R,5R)-1,3,4-trihydroxy-5-hydroxylaminocyclohexane-1-carboxylic acid]
St-DHQ1 [2]; St-DHQ1, ∼1:120 enzyme/ligand ratio, 24 h, 25°C
  additional mass of covalently modified enzyme (MALDI): 158
St-DHQ1 [5]
  type of inhibition: time-dependent irreversible inhibitor
St-DHQ1 [5]; PPB 50 mM, pH 7.2, 25°C
  k inact: 13 ± 1 ms^−1
St-DHQ1 [5]; [9]
  Ki: 130 ± 12 µM
Sa-DHQ1 [6]
  type of inhibition: time-dependent irreversible inhibitor
Sa-DHQ1 [6]; PPB 50 mM, pH 7.2, 25°C
  k inact: 8 ± 1 ms^−1
Sa-DHQ1 [6]; [9]
  Ki: 90 ± 8 µM

## N[C@@H]1C[C@@](O)(C(=O)O)C[C@@H](O)[C@@H]1O [Compound 7, (1S,3R,4R,5R)-3-amino-1,4,5-trihydroxycyclohexane-1-carboxylic acid]
St-DHQ1 [2]
  covalent modification of enzyme (MALDI): No modifications
St-DHQ1 [3]
  IC50: 528 ± 33 µM
Sa-DHQ1 [4]
  IC50: 482 ± 19 µM
St-DHQ1 [5]
  type of inhibition: reversible competitive inhibitors
Sa-DHQ1 [6]
  type of inhibition: reversible competitive inhibitors
